In brackets after ≈: the same amount, converted by molar mass. Where two headings read alike, the source gives them in different places. Positions of bridges follow the written chain, without caps; N, C: chain ends. Non-standard residues stand in square brackets, D forms with d. Residues, ends and D or L forms follow the SMILES beside them. *: point of attachment. Decanoyl(3R-OH) = CCCCCCC[C@@H](O)CC(=O)*; Undecanoyl = CCCCCCCCCCC(=O)*; Lauroyl = CCCCCCCCCCCC(=O)*; dDab = NCC[C@@H](N)C(=O)O; Nle = CCCC[C@H](N)C(=O)O; dDap = NC[C@@H](N)C(=O)O; Dab = NCC[C@H](N)C(=O)O; Nva = CCC[C@H](N)C(=O)O; Dap = NC[C@H](N)C(=O)O
How the values were obtained:
A. baumannii ATCC 19606 = conditions: ATCC 19606
In short: (§1)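 Mid-log cultures grown in Mueller Hinton broth at 37° C were tested by 2-fold broth microdilution at 5×10^5 CFU/mL final. Compounds were dissolved in water and tested over a final range of 32 to 0.015 μg/mL.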

[1] = system: P. aeruginosa GN_043, PmxR
In short: as §1

P. aeruginosa ATCC 27853 = conditions: ATCC 27853
In short: as §1

[2] = system: S. aureus ATCC 25923, MSSA; conditions: ATCC 25923
In short: as §1

A. baumannii GN_093 PmxR = conditions: GN 093 PmxR
In short: as §1

[3] = system: K. pneumoniae GN_102 PmxR; conditions: GN 102 PmxR
In short: as §1

E. coli ATCC 25922 = conditions: ATCC 25922
In short: as §1

[4] = system: K. pneumoniae GN_106, PmxR; conditions: GN 106, PmxR
In short: as §1

K. pneumoniae ATCC 13883 = conditions: ATCC 13883
In short: as §1

[5] = system: K. pneumoniae ATCC 700603, MDR; conditions: ATCC 700603
In short: as §1

[6] = system: P. aeruginosa GN_105, PmxR; conditions: GN 105, PmxR
In short: as §1

[7] = system: K. pneumoniae ATCC BAA-2146, NDM-1 pos; conditions: ATCC BAA-2146
In short: as §1

in vitro = conditions: human
Procedure: Cytotoxicity of the synthesised peptides was evaluated by comparison with commercially available colistin (polymyxin E), polymyxin B (Sigma chemical Co., St. Louis, Mo., U.S.A.) and synthetic octapeptin C4 by conducting lactate dehydrogenase (LDH) assay. CC50 values calculated based on curve fitting of dose dependent inhibition of cell growth represented the cytotoxicity of the peptide. Human kidney 2 (HK2) cells were seeded as 2000 cells per well in a 384 well cell culture plate in a final volume of 20 μL in DMEM/F12 medium (Invitrogen #11330057), in which 10% of FBS was added. Cells were incubated for 24 hours at 37° C., 5% CO2 to allow cells to attach to the plates. Similar conditions were employed for HEK293 and HepG2 cytotoxicity assays.
Cytotoxicity to HEK293 and HepG2 cells was determined using the resazurin assay (McMillian, M. K.; Li, L.; Parker, J. B.; Patel, L.; Zhong, Z.; Gunnett, J. W.; Powers, W. J.; Johnson, M. D. An improved resazurin-based cytotoxicity assay for hepatic cells; Cell Biol. Toxicol. 2002, 18, 157-173; O'Brien, J.; Wilson, I.; Orton, T.; Pognan, F. Investigation of the Alamar Blue (resazurin) fluorescent dye for the assessment of mammalian cell cytotoxicity. Eur. J. Biochem. 2000, 267, 5421-5426). In brief, HEK293 and HepG2 cells were seeded at 4000 cells/well in black-wall, clear-bottom 384-well plates (Corning, Australia) and incubated for 24 h at 37° C., 5% CO2. Compounds were then added into each well. After 24 h incubation, 5 μM resazurin was added per well and incubated at 37° C. for 2 h. Fluorescence intensity was then read using a Polarstar Omega with excitation/emission 560/590. The data was then analyzed using GraphPad Prism 6 software. CC50 values were determined using GraphPad Prism 6 software (Inc. La Jolla, Calif.).

SMILES	MIC A. baumannii ATCC 19606 (A. baumannii ATCC 19606)	MIC P. aeruginosa GN_043, PmxR ([1]; polymyxin-resistant)	MIC P. aeruginosa ATCC 27853 (P. aeruginosa ATCC 27853)	MIC S. aureus ATCC 25923, MSSA [2]	MIC A. baumannii GN_093 PmxR (A. baumannii GN_093 PmxR)	MIC K. pneumoniae GN_102 PmxR [3]	MIC E. coli ATCC 25922 (E. coli ATCC 25922)	MIC K. pneumoniae GN_106, PmxR [4]	MIC K. pneumoniae ATCC 13883 (K. pneumoniae ATCC 13883)	MIC K. pneumoniae ATCC 700603, MDR [5]	MIC P. aeruginosa GN_105, PmxR [6]	MIC K. pneumoniae ATCC BAA-2146, NDM-1 pos [7]	CC50 at 24 h (in vitro)	MIC P. aeruginosa GN_043, PmxR ([1]; P. aeruginosa GN_043, PmxR)
CCCCCCC[C@@H](O)CC(=O)N[C@H](CCN)C(=O)N[C@H]1CCNC(=O)[C@H](CC(C)C)NC(=O)[C@H](CN)NC(=O)[C@H](CCN)NC(=O)[C@H](CC(C)C)NC(=O)[C@@H](Cc2ccccc2)NC(=O)[C@H](CCN)NC1=O [compound 987, 3(R)OH-nC9CO-D-Dab-cyc[L-Dab-L-Dab-D-Phe-L-Leu-L-Dab-L-Dap-L-Leu]] ({Decanoyl(3R-OH)}-[dDab][Dab][Dab][dF]L[Dab][Dap]L; lactam 2-C)	1 µg/mL (≈ 0.971 µM)	2 µg/mL (≈ 1.94 µM)	2 µg/mL (≈ 1.94 µM)	16 µg/mL (≈ 15.5 µM)	8 µg/mL (≈ 7.76 µM)	16 µg/mL (≈ 15.5 µM)	8 µg/mL (≈ 7.76 µM)	16 µg/mL (≈ 15.5 µM)	4 µg/mL (≈ 3.88 µM)	4 µg/mL (≈ 3.88 µM)	4 µg/mL (≈ 3.88 µM)	4 µg/mL (≈ 3.88 µM)	> 300 µM	
CCCCCCC[C@@H](O)CC(=O)N[C@H](CCN)C(=O)N[C@H]1CCNC(=O)[C@H](CC(C)C)NC(=O)[C@H](CCCCN)NC(=O)[C@H](CCN)NC(=O)[C@H](CC(C)C)NC(=O)[C@@H](Cc2ccccc2)NC(=O)[C@H](CCN)NC1=O [compound 989, 3(R)OH-nC9CO-D-Dab-cyc[L-Dab-L-Dab-D-Phe-L-Leu-L-Dab-L-Lys-L-Leu]] ({Decanoyl(3R-OH)}-[dDab][Dab][Dab][dF]L[Dab]KL; lactam 2-C)	8 µg/mL (≈ 7.46 µM)	2 µg/mL (≈ 1.86 µM)	2 µg/mL (≈ 1.86 µM)	16 µg/mL (≈ 14.9 µM)	16 µg/mL (≈ 14.9 µM)	4 µg/mL (≈ 3.73 µM)	4 µg/mL (≈ 3.73 µM)	4 µg/mL (≈ 3.73 µM)	4 µg/mL (≈ 3.73 µM)	2 µg/mL (≈ 1.86 µM)	2 µg/mL (≈ 1.86 µM)	2 µg/mL (≈ 1.86 µM)	> 300 µM	
CCCCCCC[C@@H](O)CC(=O)N[C@H](CN)C(=O)N[C@H]1CCNC(=O)[C@H](CC(C)C)NC(=O)[C@H](CCN)NC(=O)[C@H](CCN)NC(=O)[C@H](CCC)NC(=O)[C@@H](Cc2ccccc2)NC(=O)[C@H](CCN)NC1=O [compound 9293, 3(R)OH-nC9CO-D-Dap-cyc[L-Dab-L-Dab-D-Phe-L-NorVal-L-Dab-L-Dab-L-Leu]] ({Decanoyl(3R-OH)}-[dDap][Dab][Dab][dF][Nva][Dab][Dab]L; lactam 2-C)	8 µg/mL (≈ 7.87 µM)		2 µg/mL (≈ 1.97 µM)		4 µg/mL (≈ 3.94 µM)	2 µg/mL (≈ 1.97 µM)	4 µg/mL (≈ 3.94 µM)	2 µg/mL (≈ 1.97 µM)	4 µg/mL (≈ 3.94 µM)	4 µg/mL (≈ 3.94 µM)	4 µg/mL (≈ 3.94 µM)	4 µg/mL (≈ 3.94 µM)	> 300 µM	1 µg/mL (≈ 0.984 µM)
CCCCCCC[C@@H](O)CC(=O)N[C@H](CN)C(=O)N[C@H]1CCNC(=O)[C@H](CC(C)C)NC(=O)[C@H](CCN)NC(=O)[C@H](CCN)NC(=O)[C@H](CCCC)NC(=O)[C@@H](Cc2ccccc2)NC(=O)[C@H](CCN)NC1=O [compound 9294, 3(R)OH-nC9CO-D-Dap-cyc[L-Dab-L-Dab-D-Phe-L-NorLeu-L-Dab-L-Dab-L-Leu]] ({Decanoyl(3R-OH)}-[dDap][Dab][Dab][dF][Nle][Dab][Dab]L; lactam 2-C)	8 µg/mL (≈ 7.76 µM)		2 µg/mL (≈ 1.94 µM)		4 µg/mL (≈ 3.88 µM)	2 µg/mL (≈ 1.94 µM)	4 µg/mL (≈ 3.88 µM)	2 µg/mL (≈ 1.94 µM)	4 µg/mL (≈ 3.88 µM)	4 µg/mL (≈ 3.88 µM)	4 µg/mL (≈ 3.88 µM)	4 µg/mL (≈ 3.88 µM)	193 µM	1 µg/mL (≈ 0.971 µM)
CCCCCCC[C@@H](O)CC(=O)N[C@H](CN)C(=O)N[C@H]1CCNC(=O)[C@H](CC(C)C)NC(=O)[C@H](CCN)NC(=O)[C@H](CCN)NC(=O)[C@H]([C@@H](C)O)NC(=O)[C@@H](Cc2ccccc2)NC(=O)[C@H](CCN)NC1=O [compound 9295, 3(R)OH-nC9CO-D-Dap-cyc[L-Dab-L-Dab-D-Phe-L-Thr-L-Dab-L-Dab-L-Leu]] ({Decanoyl(3R-OH)}-[dDap][Dab][Dab][dF]T[Dab][Dab]L; lactam 2-C)	4 µg/mL (≈ 3.93 µM)		2 µg/mL (≈ 1.96 µM)		4 µg/mL (≈ 3.93 µM)	2 µg/mL (≈ 1.96 µM)	2 µg/mL (≈ 1.96 µM)	4 µg/mL (≈ 3.93 µM)	4 µg/mL (≈ 3.93 µM)	4 µg/mL (≈ 3.93 µM)	4 µg/mL (≈ 3.93 µM)	4 µg/mL (≈ 3.93 µM)	> 300 µM	2 µg/mL (≈ 1.96 µM)
CCCCCCCCCCC(=O)N[C@H](CN)C(=O)N[C@H]1CCNC(=O)[C@H](CC(C)C)NC(=O)[C@H](CCN)NC(=O)[C@H](CCN)NC(=O)[C@H](CC(C)C)NC(=O)[C@@H](Cc2ccccc2)NC(=O)[C@H](CCN)NC1=O [compound 9296, nC10CO-D-Dap-cyc[L-Dab-L-Dab-D-Phe-L-Leu-L-Dab-L-Dab-L-Leu]] (Undecanoyl-[dDap][Dab][Dab][dF]L[Dab][Dab]L; lactam 2-C)	16 µg/mL (≈ 15.6 µM)		2 µg/mL (≈ 1.94 µM)		32 µg/mL (≈ 31.1 µM)	2 µg/mL (≈ 1.94 µM)	4 µg/mL (≈ 3.89 µM)	4 µg/mL (≈ 3.89 µM)	4 µg/mL (≈ 3.89 µM)	2 µg/mL (≈ 1.94 µM)	32 µg/mL (≈ 31.1 µM)	4 µg/mL (≈ 3.89 µM)	63 µM	1 µg/mL (≈ 0.972 µM)
CCCCCCCCCCCC(=O)N[C@H](CN)C(=O)N[C@H]1CCNC(=O)[C@H](CC(C)C)NC(=O)[C@H](CCN)NC(=O)[C@H](CCN)NC(=O)[C@H](CC(C)C)NC(=O)[C@@H](Cc2ccccc2)NC(=O)[C@H](CCN)NC1=O [compound 9297, nC11CO-D-Dap-cyc[L-Dab-L-Dab-D-Phe-L-Leu-L-Dab-L-Dab-L-Leu]] (Lauroyl-[dDap][Dab][Dab][dF]L[Dab][Dab]L; lactam 2-C)	16 µg/mL (≈ 15.3 µM)		4 µg/mL (≈ 3.84 µM)		8 µg/mL (≈ 7.67 µM)	8 µg/mL (≈ 7.67 µM)	2 µg/mL (≈ 1.92 µM)	8 µg/mL (≈ 7.67 µM)	4 µg/mL (≈ 3.84 µM)	4 µg/mL (≈ 3.84 µM)	8 µg/mL (≈ 7.67 µM)	8 µg/mL (≈ 7.67 µM)	33 µM	2 µg/mL (≈ 1.92 µM)

From patent US11279733B2, “Peptide antibiotics” (priority 2017, dated 2022)
